From ChEMBL document CHEMBL6096664, “Discovery of novel KSP-targeting PROTACs with potent antitumor effects in vitro and in vivo” (Eur J Med Chem, 2025) come the findings set out here.

As a reminder, the Emax is the greatest response seen or fitted, relative to the assay's reference. As a reminder, the IC50 is the concentration that inhibits the measured activity by half.

The test system of series [1] is HCT-116. Briefly: Induction of apoptosis in human HCT-116 cells assessed as viable cells at 10 nM incubated for 48 hrs by Annexin V-FITC/PI staining based flow cytometry analysis (reference value: 94.31 %). The class given is functional. The following applies: read-out: Activity. (In general: A flow cytometer gives signals particle by particle.)
Series [2] has as its system HCT-116. Briefly: Induction of apoptosis in human HCT-116 cells assessed as necrotic cells at 100 nM incubated for 48 hrs by Annexin V-FITC/PI staining based flow cytometry analysis (reference value: 1.31 %). The format is functional.
Series [3] concerns the target T1, Protein cereblon/Kinesin-like protein KIF11 (Homo sapiens, UniProt P52732+Q96SW2). In words: PROTAC activity at CRBN/KSP in human HCT-116 cells assessed as induction of KSP degradation at 200 nM pretreated with MG-132 for 2 hrs followed by compound addition for 24 hrs by Western blot analysis. The format is cell-based.
Series [4] concerns HCT-116. In words: Antitumor activity against human HCT-116 cells xenografted in female BALB/c nu/nu mouse assessed as reduction in tumor volume at 15 mg/kg, ip measured every 2 days for 14 days relative to control. The class given is functional. More on the design: scale not given: the % may be the effect or the level left. To be noted: time 14 day. On the technique in general: A xenograft is tissue or cells of one species grown in another, often human tumour cells in immunodeficient mice.

In series [5] the target is T1, Protein cereblon/Kinesin-like protein KIF11. Briefly: PROTAC activity at CRBN/KSP in human HCT-116 cells assessed as induction of KSP degradation by measuring maximal efficacy incubated for 48 hrs by Western blot analysis relative to control. The format is cell-based. In general terms: In western blotting, separated proteins are transferred to a membrane and probed.

Series [6] deals with HCT-116. In words: Antiproliferative activity against human HCT-116 cells assessed as inhibition of cell proliferation measured after 72 hrs by CCK8 assay. The format is functional, cell-based. To be noted: HCT-116, 72 h.
In series [7] the test system is HCT-116. Briefly: Antitumor activity against human HCT-116 cells xenografted in female BALB/c nu/nu mouse assessed as reduction in tumor weight at 15 mg/kg, ip measured every 2 days for 14 days relative to control. The format is functional. More on the design: scale not given: the % may be the effect or the level left. To be noted: time 14 day.
Series [8] has as its system HCT-116. Briefly: Induction of cell cycle arrest in human HCT-116 cells assessed as accumulation of cells at G2/M phase at 100 nM incubated for 24 hrs by RNase A/propidium iodide staining based flow cytometric analysis (reference value: 4.05 %). The class given is functional.
The nature of series [9]: Toxicity in female BALB/c nu/nu nude mouse xenografted with human HCT-116 cells assessed as body weight loss at 7.5 to 15 mg/kg, ip measured every 2 days for 14 days. The class given is organism-based. The following applies: in vivo, 336 h, dose 7.5-15 mg/kg, time 14 day.
Series [10] has as its target T1, Protein cereblon/Kinesin-like protein KIF11. In words: PROTAC activity at CRBN/KSP in human HCT-116 cells assessed as induction of KSP degradation at 500 nM incubated for 48 hrs by Western blot analysis relative to control. The format is cell-based.
The test system of a further series is MCF7. In words: Antiproliferative activity against human MCF7 cells assessed as inhibition of cell proliferation measured after 72 hrs by CCK8 assay. The class given is functional, cell-based. To be noted: MCF7, 72 h.
Series [11] relates to HCT-116. In words: Induction of apoptosis in human HCT-116 cells assessed as viable cells at 100 nM incubated for 48 hrs by Annexin V-FITC/PI staining based flow cytometry analysis (reference value: 94.31 %). The format is functional. The following applies: read-out: Activity.
The test system of series [12] is HCT-116. Briefly: Antitumor activity against human HCT-116 cells xenografted in female BALB/c nu/nu mouse assessed as reduction in tumor volume at 7.5 mg/kg, ip measured every 2 days for 14 days relative to control. The class given is functional. More on the design: scale not given: the % may be the effect or the level left. The following applies: time 14 day.
The subject of series [13] is HCT-116. In words: Induction of apoptosis in human HCT-116 cells assessed as late apoptotic cells at 100 nM incubated for 48 hrs by Annexin V-FITC/PI staining based flow cytometry analysis (reference value: 1.36 %). The class given is functional.
Series [14] has as its system HCT-116. In words: Antitumor activity against human HCT-116 cells xenografted in female BALB/c nu/nu mouse assessed as reduction in tumor weight at 7.5 mg/kg, ip measured every 2 days for 14 days relative to control. Further details: scale not given: the % may be the effect or the level left; call rule not given here. The format is functional. The following applies: time 14 day.
For series [15], the target named is T1, Protein cereblon/Kinesin-like protein KIF11. In words: PROTAC activity at CRBN/KSP in human HCT-116 cells assessed as reduction of KSP protein level at 200 nM by Western blot analysis. The class given is cell-based. The following applies: time 6-48 hrs.
In series [16] the target is T2, Kinesin-like protein KIF11 (Homo sapiens, UniProt P52732).
T2 sequence (P52732 whole entry): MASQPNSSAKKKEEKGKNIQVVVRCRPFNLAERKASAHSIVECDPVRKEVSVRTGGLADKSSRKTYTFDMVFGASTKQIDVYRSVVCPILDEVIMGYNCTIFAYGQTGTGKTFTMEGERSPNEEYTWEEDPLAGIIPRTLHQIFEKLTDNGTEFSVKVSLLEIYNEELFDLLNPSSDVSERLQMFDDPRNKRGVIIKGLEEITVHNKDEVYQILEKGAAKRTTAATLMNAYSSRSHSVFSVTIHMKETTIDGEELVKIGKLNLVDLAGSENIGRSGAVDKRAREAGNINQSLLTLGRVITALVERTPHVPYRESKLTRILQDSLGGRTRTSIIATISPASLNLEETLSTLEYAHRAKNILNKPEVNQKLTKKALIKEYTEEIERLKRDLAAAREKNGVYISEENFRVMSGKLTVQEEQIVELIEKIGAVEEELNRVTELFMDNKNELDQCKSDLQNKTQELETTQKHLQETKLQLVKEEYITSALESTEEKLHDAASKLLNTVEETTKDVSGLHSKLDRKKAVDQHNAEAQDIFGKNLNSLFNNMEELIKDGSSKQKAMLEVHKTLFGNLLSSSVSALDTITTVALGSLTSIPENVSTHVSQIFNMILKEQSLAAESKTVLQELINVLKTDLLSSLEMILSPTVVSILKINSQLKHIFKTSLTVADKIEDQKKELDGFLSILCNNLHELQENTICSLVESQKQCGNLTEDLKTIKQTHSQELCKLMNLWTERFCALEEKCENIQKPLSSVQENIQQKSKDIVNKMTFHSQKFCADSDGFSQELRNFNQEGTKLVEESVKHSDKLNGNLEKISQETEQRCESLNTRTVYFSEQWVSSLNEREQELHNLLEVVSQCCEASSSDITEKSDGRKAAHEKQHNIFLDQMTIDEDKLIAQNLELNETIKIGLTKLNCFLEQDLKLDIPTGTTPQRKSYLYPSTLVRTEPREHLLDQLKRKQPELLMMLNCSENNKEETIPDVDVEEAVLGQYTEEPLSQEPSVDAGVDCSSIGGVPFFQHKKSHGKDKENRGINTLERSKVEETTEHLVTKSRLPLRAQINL
Briefly: Inhibition of KSP (unknown origin) ATPase activity preincubated for 30 mins followed by ATP addition and measured after 15 mins by Kinase-Glo Plus reagent based luminescence analysis.

Series [17] has as its system HCT-116. Briefly: Induction of apoptosis in human HCT-116 cells assessed as early apoptotic cells at 100 nM incubated for 48 hrs by Annexin V-FITC/PI staining based flow cytometry analysis (reference value: 3.02 %). The class given is functional.
Series [18] deals with HCT-116. In words: Induction of cell cycle arrest in human HCT-116 cells assessed as accumulation of cells at G1 phase at 10 nM incubated for 24 hrs by RNase A/propidium iodide staining based flow cytometric analysis (reference value: 93.11 %). The class given is functional.
The next series has as its system MDA-MB-231. Briefly: Antiproliferative activity against human MDA-MB-231 cells assessed as inhibition of cell proliferation measured after 72 hrs by CCK8 assay. The following applies: MDA-MB-231, 72 h. The class given is functional, cell-based.
Series [19] concerns HCT-116. Briefly: Induction of apoptosis in human HCT-116 cells assessed as early apoptotic cells at 10 nM incubated for 48 hrs by Annexin V-FITC/PI staining based flow cytometry analysis (reference value: 3.02 %). The format is functional.

T1 sequence (Q96SW2 whole entry, looked up, one chain of several): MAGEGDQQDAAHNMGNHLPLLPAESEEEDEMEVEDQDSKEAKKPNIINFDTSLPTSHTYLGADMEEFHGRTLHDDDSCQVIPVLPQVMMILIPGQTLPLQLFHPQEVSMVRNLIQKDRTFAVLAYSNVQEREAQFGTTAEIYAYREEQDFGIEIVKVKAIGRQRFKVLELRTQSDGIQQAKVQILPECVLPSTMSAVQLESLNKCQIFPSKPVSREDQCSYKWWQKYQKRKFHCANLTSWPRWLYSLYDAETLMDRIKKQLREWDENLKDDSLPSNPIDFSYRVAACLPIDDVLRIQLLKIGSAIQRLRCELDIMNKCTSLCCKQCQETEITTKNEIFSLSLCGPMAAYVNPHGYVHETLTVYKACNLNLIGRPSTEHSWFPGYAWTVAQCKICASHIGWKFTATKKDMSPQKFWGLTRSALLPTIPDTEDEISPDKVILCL

Take `COc1ccc(C2(SC[C@H](N)C(=O)NCCCCCCCCNC(=O)COc3cccc4c3C(=O)N(C3CCC(=O)NC3=O)C4=O)c3ccccc3C=Cc3ccccc32)cc1` (stereo partly specified): the viability at 0.01 µM in the series on HCT-116 [1] came out at 57.9%. In addition, the Activity in the series on HCT-116 [2] is 14.98%; in series [3] it was “Not active; Compound Induced Ksp Degradation In Mediated Through Ubiquitin-Proteosome System”; in the series with HCT-116 [4], 98%; with HCT-116 [7] it was 99%; in the series with HCT-116 [8], 75.05%; in series [9], “Non-toxic”. The Activity in series [10] was 82.1%; in the series on HCT-116 [12], 91%; in the series with HCT-116 [13], 25.55%; with HCT-116 [14] it was 97%; in series [15] it was “Time-dependent-effect; Considerable Ksp Degradation Noticed Within 6 Hrs”; in the series with HCT-116 [17], 30.35%. Also, the Activity in the series on HCT-116 [18] was determined as 75.34%; with HCT-116 [19], 13.51%. In series [5], the Emax was found to be 90%. Moreover, the half-maximal inhibitory concentration (IC50) stood at 10.2 nM with HCT-116 [6], 424 nM in the series on MCF7, 290 nM in series [16] and 35.4 nM in the series with MDA-MB-231. Moreover, in the series with HCT-116 [11], the viability at 0.1 µM stood at 29.1%.
